Experimental findings from US20150359886A1, “SYSTEM AND METHODS FOR NANOSTRUCTURE PROTECTED DELIVERY OF TREATMENT AGENT AND SELECTIVE RELEASE THEREOF” (priority 2012, published 2015) are described below.

Each structure is given as a SMILES string.

Test [1] relates to L3.6 cells. The format is cell-based. The note with it: for cell death (killing) of pancreatic cancer cells: FIG. 2, single agents even at high doses, combination at relatively low dose; for concentration required for a comparable effect with the exogenously applied treatment: exogenously applied Taxol + C6-ceramide combination, no CNT carrier. On the procedure: Human pancreatic cancer lines PANC-1, MIA PaCa-2 (MIA) and L3.6 cells culture, cell viability assay (MTT dye assay) and Western blots assay were performed as described in Cao, C., et al. Galpha(i1) and Galpha(i3) are required for epidermal growth factor-mediated activation of the Akt-mTORC1 pathway. Science signaling 2, ra17 (2009).
Accordingly, experiments were carried out to examine the magnitude of chemosensitization of C6-ceramide on Taxol in different cancer cell lines. The pancreatic cancer cell lines L3.6. PANC-1 and MIA PaCa-2 (MIA) cells were selected for this experiment.
Using same pancreatic cancer cells (L3.6), the inductive heating release was we next tested the on-commandinductive-heating release of the encapsulated chemotherapeutic agents (Taxol and C6-ceramide) from CNTs. The drug-loaded CNTs were added to L3.6 cells for 12 hours, allowing them to be taken up by the cells. The cells were then washed with fresh basal medium (DMEM) 5 times to remove residual CNTs from the media, and a 30 min a.c. magnetic field (25 kHz) was applied to these cells to release the encapsulated drugs (Taxol and C6-ceramide) present in CNTs within the cells. After 48 h, the release of the drugs was inferred and assessed by the degree of cell death.

Test [2] relates to PANC-1. Description: Cell viability assay (MTT dye assay), PANC-1 pancreatic cancer cells. The format is cell-based, Human. The note with it: for cell death (killing) of pancreatic cancer cells: FIG. 2, single agents even at high doses, combination at relatively low dose. On the procedure: (§1) Science signaling 2, ra17 (2009).
(§2) Accordingly, experiments were carried out to examine the magnitude of chemosensitization of C6-ceramide on Taxol in different cancer cell lines. The pancreatic cancer cell lines L3.6. PANC-1 and MIA PaCa-2 (MIA) cells were selected for this experiment. […] However, the side effects noted above remain a challenging problem in this combination regimen and calls for a new delivery method.
On the technique in general: Tetrazolium dyes change colour on reduction, which living cells bring about.

The subject of test [3] is MIA PaCa-2 (MIA). Description: Cell viability assay (MTT dye assay), MIA PaCa-2 pancreatic cancer cells. The class given is cell-based, Human. The note with it: for cell death (killing) of pancreatic cancer cells: FIG. 2, single agents even at high doses, combination at relatively low dose. As to the method:
as §1, §2

Where [4] appears, read: sensitization of Taxol-induced cell death.

Take `CCCCCCCCCCCCC/C=C/[C@@H](O)[C@H](CO)NC(=O)CCCCC` [C6-ceramide]: the “cell death (killing) of pancreatic cancer cells” value in test [1] (L3.6), in test [2] and in test [3] was “limited killing” throughout. In addition, the “concentration needed to reach the chemosensitization effect” value in test [1] (L3.6, sensitization of Taxol-induced cell death) is 5-10 micrograms per milliliter; in test [2] (setting [4]), 5-10 micrograms per milliliter; in test [3] (setting [4]) it was 5-10 micrograms per milliliter. Also, the “concentration required for a comparable effect with the exogenously applied treatment” value in test [1] came out at 10 µg/mL.
Take `CC(=O)O[C@H]1C(=O)[C@@]2(C)[C@H]([C@H](OC(=O)c3ccccc3)[C@]3(O)C[C@H](OC(=O)[C@H](O)[C@@H](NC(=O)c4ccccc4)c4ccccc4)C(C)=C1C3(C)C)[C@]1(OC(C)=O)CO[C@@H]1C[C@@H]2O` [Taxol, Paclitaxel]: the “cell death (killing) of pancreatic cancer cells” value in test [1] (L3.6), in test [2] and in test [3] was “limited killing” each time. For the same compound, the “concentration required for a comparable effect with the exogenously applied treatment” value in test [1] came out at 3 µg/mL.
